From patent publication US10543223B2, “Mannose derivatives useful for treating pathologies associated with adherent E. coli” (ENTEROME, priority 2015, dated 2020)
Values joined by “and” are separate entries in the source; they are usually repeats but may differ in a detail not shown here. Equal values may be shown once. Read-outs that look alike come from different tables or passages of the source.

Assays:
LF82 = assay: Hemagglutination inhibition assay, guinea pig erythrocytes, E. coli strain LF82; type: cell-based; settings: Escherichia coli, read-out: MIC of haemagglutination
Method: (§1) Interaction of E. coli FimH adhesins with the glycocalyx of guinea pig erythrocytes forms a crosslinked network in the wells. Glycoconjugates, added in a 2-fold dilution series, prevent the agglutination reaction. The inhibition titer is defined as the lowest concentration of the glycoconjugate at which hemagglutination is still inhibited. Several strains of E. coli were grown statically overnight in LB at 37° C., washed three times in ice-cold phosphate-buffered saline, and redissolved. A 2-fold dilution of glycoconjugates with a starting concentration of 1 mM was prepared in 25 μL of PBS with 10% of DMSO. Importantly, the pipet tip was changed at every dilution step to avoid carry-over. Next, the bacterial solution (25 μL) was added to the 2-fold dilution series of the compound. Finally, 50 μL of guinea pig red blood cells, washed and diluted in the buffer to 5% of the blood volume, was added to reach 100 μL. The plates were left on ice for one night before read-out.
(§2) The anti-adhesive capacity of the inhibitors was evaluated against ten E. coli strains isolated from CD patients, urinary tract infections, and hip prosthesis infections.

[1] = Plasma concentrations and pharmacokinetics after IV and PO administration to rats; type: in vivo, Sprague Dawley rats; settings: for % AUCextra / AUC(0-inf) / AUC(0-t) / Cmax / Tmax: DMSO, based on mean data
Method: Plasma and faeces concentrations after administration of Compound 1b and for compound 13 of WO 2014/016361 at 1 mg/kg by intravenous route and 10 mg/kg by oral route to Sprague Dawley rats
At least 8 point calibration standards are run using standard conditions which consist to LC-MS/MS system with C18 column after precipitation of proteins with acetonitrile before the start of the analytical test.
For the plasma, 100 μL of blank rat plasma are directly spiked with the compounds before being precipitate with 300 μL of acetonitrile.
The concentration ranges tested are: • 0.5 ng/mL to 1000 ng/mL for plasma, • 4 to 2000 ng/g for faeces, corresponding to 1 to 500 ng/mL of faeces homogenate. 3. In-Life Part
12 male Sprague Dawley rats around 6-7 week old are used.
At prescribed times, blood is collected. Animals are briefly anaesthetised with Isoflurane® using an anaesthetic system (Équipement Vétérinaire Minerve) during blood samplings.
Blood samples are centrifuged at 2500 rpm at +4° C. (between 0 and 9° C.), the plasma is removed and placed into labelled polypropylene tubes. Individual plasma samples are stored frozen at −20° C. (target temperature) until analysis.
100 μL of the plasma sample are taken and 300 μL of acetonitrile are added. After protein precipitation, analysis is performed using LC-MS/MS determination according to previous analytical test results.
Concentrations of the samples are calculated directly from chromatograms after automatic integration by Analyst® 1.5.1 and expressed as ng/mL.
Mean plasma concentrations are calculated (when calculable, i.e. n≥2) using individual concentration and are expressed with the corresponding standard deviation value and variation coefficient (when calculable, i.e. n≥3), with
[formula] The individual plasma concentrations are tabulated for each rat and scheduled sampling time. Concentrations below the LLOQ are indicated by BLQ. All BLQ concentrations are substituted by zero for calculation of the descriptive statistics of the concentrations. 5. Results Estimation of pharmacokinetics parameters is performed using Kinetica® (Version 4.3—Thermo Electron Corporation—Philadelphia—USA). It was performed by using a one-compartment model approach, which considers the body as a single compartment in which the concentration is homogeneous. The following parameters are estimated: Cmax (ng/mL): maximal plasma concentration Tmax (h): first time to reach Cmax AUCt (ng/mL*h): area under the plasma concentration-time curve from administration up to the last quantifiable concentration at time t
[formula] “BLQ” stands for “Below the Limit of Quantification” ([…] for plasma). Compound 1b

[2] = tested on: uropathogenic E. coli strain UTI89; assay: Hemagglutination inhibition assay, guinea pig erythrocytes, E. coli strain UTI89; type: cell-based; settings: Escherichia coli, read-out: MIC of haemagglutination
Method: as §1
Inhibition of E. coli Strain UTI89 Isolated from Patient with Urinary Tract Infection.
as §2

[3] = Faeces concentrations and recovery after IV and PO administration to rats; type: in vivo, Sprague Dawley rats; settings: 0-24 h; for dose excreted: Sprague Dawley, rat, faeces
Method: Plasma and faeces concentrations after administration of Compound 1b and for compound 13 of WO 2014/016361 at 1 mg/kg by intravenous route and 10 mg/kg by oral route to Sprague Dawley rats Blank rat faeces are homogenized with 3 volumes of UHQ water until obtention of a paste. Then 100 μL of the homogenate are spiked with the molecules and precipitated with 300 μL of acetonitrile. The concentration ranges tested are: • 0.5 ng/mL to 1000 ng/mL for plasma, • 4 to 2000 ng/g for faeces, corresponding to 1 to 500 ng/mL of faeces homogenate. 3. In-Life Part After administration, the animals are placed in individual metabolic cages in order to collect faeces samples during 24 hours. Faeces samples are collected over the 24 hours of the experiment. They are precisely weighed and 3 volumes of UHQ water are added. The mixture is homogeneized until obtention of a paste. Then 100 μL of the homogenate are taken and extracted with 300 μL of Acetonitrile. Analysis is performed using LC-MS/MS determination according to previous analytical test results.

[4] = male, Sprague Dawley, rat, plasma, IV 1 mg/kg
[5] = male, Sprague Dawley, rat, plasma, PO 10 mg/kg
[6] = IV 1 mg/kg, individual rats IV1-IV3, 1 mg/kg
[7] = PO 10 mg/kg, individual rats PO4-PO6, 10 mg/kg

In the case of `Cc1nc(-c2cnccn2)sc1C(=O)c1cnc(C[C@H]2O[C@H](CO)[C@@H](O)[C@H](O)[C@@H]2O)s1` [Compound 1b, 5-(4-methyl-2-(pyrazin-2-yl)thiazole-5-carbonyl) 2-((-α-D-mannopyranos-1-yl)methyl)thiazole], the MIC (LF82) is reported as 0.024 µM, the Plasma concentration ([1]; IV 1 mg/kg, 0.083 h, individual rats IV1-IV3, 1 mg/kg) is reported as 470.2 ng/mL and 908.7 ng/mL and the Plasma concentration ([1]; IV 1 mg/kg, 0.5 h, individual rats IV1-IV3, 1 mg/kg) is reported as 108.2 ng/mL and 66.5 ng/mL. For the same compound, the Plasma concentration ([1]; IV 1 mg/kg, 2 h, individual rats IV1-IV3, 1 mg/kg) was “BLQ”, the Plasma concentration ([1]; IV 1 mg/kg, 6 h, individual rats IV1-IV3) was “BLQ” and the Plasma concentration ([1]; IV 1 mg/kg, 24 h, individual rats IV1-IV3) was “BLQ”. The “% AUCextra” value ([1]; IV 1 mg/kg) was 0.35%, the Plasma concentration ([1]; PO 10 mg/kg, 0.5 h, individual rats PO4-PO6, 10 mg/kg) was 8.1 ng/mL and 6.5 ng/mL and the Plasma concentration ([1]; PO 10 mg/kg, 1 h, individual rats PO4-PO6, 10 mg/kg) was 6.5 ng/mL and BLQ. The Plasma concentration ([1]; PO 10 mg/kg, 2 h, individual rats PO4-PO6, 10 mg/kg) was “BLQ and 5.2 ng/mL”, the Plasma concentration ([1]; PO 10 mg/kg, 6 h, individual rats PO4-PO6) was “BLQ” and the Plasma concentration ([1]; PO 10 mg/kg, 24 h, individual rats PO4-PO6) was “BLQ”. For the same compound, the “% AUCextra” value ([1]; PO 10 mg/kg) was 53.8%, the concentration at 0.083 h ([1]; male, Sprague Dawley, rat, plasma, iv, 1 mg/kg, IV 1 mg/kg, 0.083 h, individual rats IV1-IV3, read-out: Plasma concentration) was 573 ng/mL and the concentration at 0.083 h ([1]; male, Sprague Dawley, rat, plasma, iv, 1 mg/kg, IV 1 mg/kg, 0.083 h, mean of 3 rats (BLQ = 0), read-out: Plasma concentration, mean) was 650 ng/mL. The concentration at 0.5 h ([1]; male, Sprague Dawley, rat, plasma, iv, 1 mg/kg, IV 1 mg/kg, 0.5 h, individual rats IV1-IV3, read-out: Plasma concentration) was 59.6 ng/mL, the concentration at 0.5 h ([1]; male, Sprague Dawley, rat, plasma, iv, 1 mg/kg, IV 1 mg/kg, 0.5 h, mean of 3 rats (BLQ = 0), read-out: Plasma concentration, mean) was 78.1 ng/mL and the concentration at 2 h ([1]; male, Sprague Dawley, rat, plasma, iv, 1 mg/kg, IV 1 mg/kg, 2 h, individual rats IV1-IV3, read-out: Plasma concentration) was 7.7 ng/mL. It also gave a concentration at 2 h ([1]; male, Sprague Dawley, rat, plasma, iv, 1 mg/kg, IV 1 mg/kg, 2 h, mean of 3 rats (BLQ = 0), read-out: Plasma concentration, mean) of 2.6 ng/mL, a concentration at 6 h ([1]; male, Sprague Dawley, rat, plasma, iv, 1 mg/kg, IV 1 mg/kg, 6 h, mean of 3 rats (BLQ = 0), read-out: Plasma concentration, mean) of 0 ng/mL and a concentration at 24 h ([1]; male, Sprague Dawley, rat, plasma, iv, 1 mg/kg, IV 1 mg/kg, 24 h, mean of 3 rats (BLQ = 0)) of 0 ng/mL. It also gave a concentration at 0.5 h ([1]; male, Sprague Dawley, rat, plasma, po, 10 mg/kg, PO 10 mg/kg, 0.5 h, individual rats PO4-PO6, read-out: Plasma concentration) of 6.7 ng/mL, a concentration at 0.5 h ([1]; male, Sprague Dawley, rat, plasma, po, 10 mg/kg, PO 10 mg/kg, 0.5 h, mean of 3 rats (BLQ = 0), read-out: Plasma concentration, mean) of 7.1 ng/mL and a concentration at 1 h ([1]; male, Sprague Dawley, rat, plasma, po, 10 mg/kg, PO 10 mg/kg, 1 h, individual rats PO4-PO6, read-out: Plasma concentration) of 5.5 ng/mL. It also gave a concentration at 1 h ([1]; male, Sprague Dawley, rat, plasma, po, 10 mg/kg, PO 10 mg/kg, 1 h, mean of 3 rats (BLQ = 0), read-out: Plasma concentration, mean) of 4 ng/mL, a concentration at 2 h ([1]; male, Sprague Dawley, rat, plasma, po, 10 mg/kg, PO 10 mg/kg, 2 h, individual rats PO4-PO6, read-out: Plasma concentration) of 6 ng/mL and a concentration at 2 h ([1]; male, Sprague Dawley, rat, plasma, po, 10 mg/kg, PO 10 mg/kg, 2 h, mean of 3 rats (BLQ = 0), read-out: Plasma concentration, mean) of 3.7 ng/mL. It also gave a concentration at 6 h ([1]; male, Sprague Dawley, rat, plasma, po, 10 mg/kg, PO 10 mg/kg, 6 h, mean of 3 rats (BLQ = 0), read-out: Plasma concentration, mean) of 0 ng/mL, a concentration at 24 h ([1]; male, Sprague Dawley, rat, plasma, po, 10 mg/kg, PO 10 mg/kg, 24 h, mean of 3 rats (BLQ = 0)) of 0 ng/mL and an AUC(0-inf) [1, 4] of 267 ng·h/mL. The AUC(0-t) [1, 4] was 266 ng·h/mL, the Cmax [1, 4] was 651 ng/mL and the Tmax [1, 4] was 4.8 min. For the same compound, the bioavailability ([1]; male, Sprague Dawley, rat, plasma, PO 10 mg/kg vs IV 1 mg/kg, calculated based on AUCt, read-out: F (bioavailability)) was 0.3%, the AUC(0-t) [1, 5] was 8 ng·h/mL and the Cmax [1, 5] was 7.07 ng/mL. For the same compound, the Tmax [1, 5] was 30 min, the AUC(0-inf) ([1]; male, Sprague Dawley, rat, plasma, PO 10 mg/kg, % AUC extra >20%: value given for indication) was 18.2 ng·h/mL and the MIC [2] was 6 µM. For the same compound, the Faeces concentration [3, 6] was 3557 ng/g and 6433 ng/g and 2274 ng/g, the “Faeces concentration (homogenate)” value [3, 6] was 889 ng/mL and 1608 ng/mL and 569 ng/mL and the Recovery in faeces [3, 6] was 9.2% and 6.8%. The “Total amount of compound in faeces” value [3, 6] was 25318 ng and 22175 ng and 19840 ng, the “Faeces concentration (homogenate), mean” value ([3]; IV 1 mg/kg, mean of 3 rats) was 1022 ng/mL and the “Faeces concentration, mean” value ([3]; IV 1 mg/kg, mean of 3 rats) was 4088 ng/g. The “Total amount of compound in faeces, mean” value ([3]; IV 1 mg/kg, mean of 3 rats) was 22445 ng, the Faeces concentration [3, 7] was 146214 ng/g and 115495 ng/g and 146982 ng/g and the “Faeces concentration (homogenate)” value [3, 7] was 36553 ng/mL and 28874 ng/mL and 36745 ng/mL. For the same compound, the Recovery in faeces [3, 7] was 41.6% and 45.1%, the “Total amount of compound in faeces” value [3, 7] was 1335427 ng and 1081683 ng and 1171915 ng and the “Faeces concentration (homogenate), mean” value ([3]; PO 10 mg/kg, mean of 3 rats) was 34058 ng/mL. The “Faeces concentration, mean” value ([3]; PO 10 mg/kg, mean of 3 rats) was 136230 ng/g, the “Total amount of compound in faeces, mean” value ([3]; PO 10 mg/kg, mean of 3 rats) was 1196341 ng and the dose excreted ([3]; iv, 1 mg/kg, IV 1 mg/kg, individual rats IV1-IV3, read-out: Recovery in faeces) was 10.5%. The dose excreted ([3]; iv, 1 mg/kg, IV 1 mg/kg, mean of 3 rats, read-out: Recovery in faeces, mean) was 8.9%, the dose excreted ([3]; po, 10 mg/kg, PO 10 mg/kg, individual rats PO4-PO6, read-out: Recovery in faeces) was 55.6% and the dose excreted ([3]; po, 10 mg/kg, PO 10 mg/kg, mean of 3 rats, read-out: Recovery in faeces, mean (quantity found in faeces out of the administered quantity)) was 47.4%.
